From US5744453A, “Polyamine conjugates for treatment of infection” (priority 1996, dated 1998)
Values after ≈ are worked out from the molar mass of the structure shown. Where a name gives a salt, the structure may show the parent alone. Read-outs that look alike come from different tables or passages of the source.

Assays:
Format in all cases: cell-based
[1] = test system: Enterococcus faecalis 29212; test: Determination of MIC against bacteria (Table 1), E. faecalis 29212; details: read-out: minimum inhibitory concentration (MIC), E. faecalis 29212
Description: (§1) Antibiotic indicator strains Escherichia coli strain 25922, Enterococcus faecalis 29212, Pseudomonas aeruginosa 27853, and Staphylococcus aureus 29213 are obtained from the American Type Tissue Culture Collection (ATCC) in Rockville, Md. The cystic fibrosis isolate, Pseudomonas aeruginosa 39324, is also obtained from ATCC. Bacteria are routinely cultivated in cation-supplemented Mueller-Hinton broth (CAMHB) or agar at 37° C.
(§2) The minimum inhibitory concentration (MIC) of glycosylated and non-glycosylated steroidal polyamines for antibiotic indicator strains is determined by dissolving the test compounds in deionized water to a final concentration of 1 mg per mL. […] These solutions are sterilized by filtration through 0.22 micron syringe filters.
(§3) Stock solutions of individual compounds are serially diluted (two-fold) in sterile CAMHB in 96-well tissue culture dishes (Falcon) and inoculated with antibiotic indicator strains that are prepared as described below.
(§4) Antibiotic indicator strains are grown in 5 mL of CAMHB for 3-4 h at 37° C. with shaking (200 rpm) on a New Brunswick rotary shaker. Bacteria are adjusted to a turbidity that matched a 0.5 McFarland standard (ca. 10^8 CFU per mL) in sterile 0.85% saline. These bacterial suspensions are diluted 1:20 in sterile 0.85% saline and 10 μL (ca. […]) of each suspension is used to inoculate individual wells of a 96 well plate that contained different concentrations of the test compounds. Following inoculation, the plates are sealed with plastic tape, incubated for 24 h at 37° C. and visually inspected for bacterial growth. CAMHB inoculated with each of the antibiotic test strains and uninoculated CAMBH plus each of the test compounds served as positive and negative controls.

[2] = test system: Pseudomonas aeruginosa 27853; test: Determination of MIC against bacteria (Table 1), P. aeruginosa 27853; details: read-out: minimum inhibitory concentration (MIC), P. aeruginosa 27853
Description: as §1, §2, §3, §4

[3] = test system: Escherichia coli strain 25922; test: Determination of MIC against bacteria (Table 1), E. coli 25922; details: read-out: minimum inhibitory concentration (MIC), E. coli 25922
Description: as §1, §2, §3, §4

[4] = test system: Pseudomonas aeruginosa 39324; test: Determination of MIC against bacteria (Table 1), P. aeruginosa 39324 (cystic fibrosis isolate); details: read-out: minimum inhibitory concentration (MIC), P. aeruginosa 39324
Description: as §1, §2, §3, §4

[5] = test system: Staphylococcus aureus 29213; test: Determination of MIC against bacteria (Table 1), S. aureus 29213; details: read-out: minimum inhibitory concentration (MIC), S. aureus 29213
Description: as §1, §2, §3, §4

[6] = Enterococcus faecalis, 29212, 24 h
[7] = Pseudomonas aeruginosa, 27853, 24 h
[8] = Pseudomonas aeruginosa, 39324, 24 h
[9] = Staphylococcus aureus, 29213, 24 h
[10] = Enterococcus faecalis, 29212, CAMHB, 24 h at 37° C., tested from 1.56 to 200 μg per mL
[11] = Pseudomonas aeruginosa, 27853, CAMHB, 24 h at 37° C., tested from 1.56 to 200 μg per mL
[12] = Escherichia coli, 25922, CAMHB, 24 h at 37° C., tested from 1.56 to 200 μg per mL
[13] = Pseudomonas aeruginosa, 39324, CAMHB, 24 h at 37° C., tested from 1.56 to 200 μg per mL
[14] = Staphylococcus aureus, 29213, CAMHB, 24 h at 37° C., tested from 1.56 to 200 μg per mL

SMILES	MIC [1, 6] [µg/mL]	MIC [2, 7] [µg/mL]	MIC ([3]; Escherichia coli, 25922, 24 h) [µg/mL]	MIC [4, 8] [µg/mL]	MIC [5, 9] [µg/mL]	MIC [1, 10] [µg/mL]	MIC [2, 11] [µg/mL]	MIC [3, 12] [µg/mL]	MIC [4, 13] [µg/mL]	MIC [5, 14] [µg/mL]
C[C@H](CCC(=O)NCCCNCCCCNCCCN)[C@H]1CC[C@H]2[C@@H]3CC[C@@H]4C[C@H](O)CC[C@]4(C)[C@H]3C[C@H](O)[C@]12C [Compound A, 3α,12α-dihydroxy-7-deoxy-5β-cholan-24-oic acid, N-(4,9-diaza-12-aminododecyl)amide]	12.5 (≈ 21.7 µM)	3.12 (≈ 5.41 µM)	12.5 (≈ 21.7 µM)	25 (≈ 43.3 µM)	6.25 (≈ 10.8 µM)					
C[C@H](CCC(=O)NCCNCCNCCNCCN)[C@H]1CC[C@H]2[C@@H]3CC[C@@H]4C[C@H](O)CC[C@]4(C)[C@H]3C[C@H](O)[C@]12C [Compound F, 3α,12α-dihydroxy-7-deoxy-5β-cholan-24-oic acid, N-(3,6,9-triaza-11-aminoundecyl)amide]						100 (≈ 177 µM)	100 (≈ 177 µM)	100 (≈ 177 µM)	100 (≈ 177 µM)	25 (≈ 44.3 µM)
C[C@H](CCC(=O)O)[C@H]1CC[C@H]2[C@@H]3CC[C@@H]4C[C@H](O)CC[C@]4(C)[C@H]3C[C@H](O)[C@]12C [deoxycholic acid sodium salt, reference compound]	> 200	> 200		> 200	> 200			> 200		
C[C@H](CCC(=O)NCCNCCNCCNCCNCCN)[C@H]1CC[C@H]2[C@@H]3[C@H](O[C@H]4O[C@H](CO)[C@@H](O)[C@H](O)[C@H]4O)C[C@@H]4C[C@H](O)CC[C@]4(C)[C@H]3C[C@H](O[C@H]3O[C@H](CO)[C@@H](O)[C@H](O)[C@H]3O)[C@]12C [Compound L, 3α-hydroxy-7α,12α-di(1'α-glucosyl)-5β-cholan-24-oic acid, N-(3,6,9,12-tetraaza-14-aminotetradecyl)amide]						> 200	> 200	> 200	> 150	> 200
C[C@H](CCC(=O)NCCCNCCCCNCCCN)[C@H]1CC[C@H]2[C@@H]3CC[C@@H]4C[C@H](O)CC[C@]4(C)[C@H]3C[C@H](O[C@H]3O[C@H](CO)[C@@H](O)[C@H](O)[C@H]3O)[C@]12C [Compound D, 3α-hydroxy-7-deoxy-12α-(1'α-glucosyl)-5β-cholan-24-oic acid, N-(4,9-diaza-12-aminododecyl)amide]	200 (≈ 271 µM)	100 to 200 (≈ 135 to 271 µM)	100 (≈ 135 µM)		50 to 100 (≈ 67.7 to 135 µM)					
C[C@H](CCC(=O)NCCNCCNCCNCCNCCN)[C@H]1CC[C@H]2[C@@H]3CC[C@@H]4C[C@H](O)CC[C@]4(C)[C@H]3C[C@H](O)[C@]12C [Compound G, 3α,12α-dihydroxy-7-deoxy-5β-cholan-24-oic acid, N-(3,6,9,12-tetraaza-14-aminotetradecyl)amide]						100 (≈ 165 µM)	50 (≈ 82.4 µM)	100 (≈ 165 µM)	50 to 100 (≈ 82.4 to 165 µM)	25 (≈ 41.2 µM)
C[C@H](CCC(=O)NCCNCCNCCNCCN)[C@H]1CC[C@H]2[C@@H]3[C@H](O)C[C@@H]4C[C@H](O)CC[C@]4(C)[C@H]3CC[C@]12C [Compound I, 3α,7α-dihydroxy-12-deoxy-5β-cholan-24-oic acid, N-(3,6,9-triaza-11-aminoundecyl)amide]						25 (≈ 44.3 µM)	50 (≈ 88.7 µM)	25 (≈ 44.3 µM)	50 (≈ 88.7 µM)	12.5 (≈ 22.2 µM)
C[C@H](CCC(=O)O)[C@H]1CC[C@H]2[C@@H]3[C@H](O)C[C@@H]4C[C@H](O)CC[C@]4(C)[C@H]3C[C@H](O)[C@]12C [cholic acid sodium salt, reference compound]	> 200	> 200	> 200	> 200	> 200					
